Here are results for five molecules from patent US11566057B2, “Long-acting co-agonists of the glucagon and GLP-1 receptors” (Merck Sharp & Dohme Corp., priority 2017, dated 2023).

Like-named read-outs stand apart in the source and are kept apart here. Numbered stars: 1 amine (or outer) side, 2 acyl side, 3 side chain; on linkers, the order of the positions; unused ones are H or OH. Square brackets hold non-standard residues; d marks the D form. Side chains are listed from the residue outwards. Peptide text beside a SMILES is read from it. * marks the point of attachment. Phe(4-CH2NH2) = NCc1ccc(C[C@H](N)C(=O)O)cc1; C18 diacid = O=C(O)CCCCCCCCCCCCCCCCC(=O)*; C16 diacid = O=C(O)CCCCCCCCCCCCCCC(=O)*; γGlu = O=C(O)[C@H](CCC(=O)[*:2])N[*:1]; Met(O2) = CS(=O)(=O)CC[C@H](N)C(=O)O; αMeD = C[C@](N)(CC(=O)O)C(=O)O; αMeS = C[C@](N)(CO)C(=O)O; AEEA = NCCOCCOCC(=O)O; Aib = CC(C)(N)C(=O)O

The target in one test is T1, human GCGR (Homo sapiens, UniProt P47871).
T1 construct: expressed in transfected cells; growth medium holds Blasticidin and Hygromycin
Description: cAMP activity assay at the Glucagon receptor (GCGR). Conditions: for hGCGR/hGLP1R (hTone): ratio of GCGR EC50 to GLP1R EC50. It counts as cell-based. The essentials: (§1)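 Peptides serially diluted from DMSO (10 points) and added to frozen-stock cells bearing human GLP1R (10,000 cells/well) or GCGR (30,000 cells/well), 1 h at RT, dark. EC50 by four-parameter logistic fit of HitHunter cAMPXS luminescence, read following overnight RT incubation.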

The target in the next test is T2, human GLP1R (Homo sapiens, UniProt P43220).
T2 construct: expressed in transfected cells; growth medium holds Blasticidin and Hygromycin
The test is described as follows: cAMP activity assay at the GLP-1 receptor (GLP1R). It counts as cell-based. The essentials: as §1

Where [1] appears, read: cells expressing human GCGR, cAMP production, buffer with or without 20% human serum (not stated which), read-out: GCGR EC50 human.
Setting [2] is: cells expressing human GLP1R, cAMP production, buffer with or without 20% human serum (not stated which), read-out: GLP1R EC50 human.
The mark [3] stands for this setting: summary statement: EC50 at each of the glucagon and GLP-1 receptors, read-out: EC50 at the glucagon receptor.
Where [4] appears, read: summary statement: EC50 at each of the glucagon and GLP-1 receptors, read-out: EC50 at the GLP-1 receptor.

T2 sequence (P43220 24-463): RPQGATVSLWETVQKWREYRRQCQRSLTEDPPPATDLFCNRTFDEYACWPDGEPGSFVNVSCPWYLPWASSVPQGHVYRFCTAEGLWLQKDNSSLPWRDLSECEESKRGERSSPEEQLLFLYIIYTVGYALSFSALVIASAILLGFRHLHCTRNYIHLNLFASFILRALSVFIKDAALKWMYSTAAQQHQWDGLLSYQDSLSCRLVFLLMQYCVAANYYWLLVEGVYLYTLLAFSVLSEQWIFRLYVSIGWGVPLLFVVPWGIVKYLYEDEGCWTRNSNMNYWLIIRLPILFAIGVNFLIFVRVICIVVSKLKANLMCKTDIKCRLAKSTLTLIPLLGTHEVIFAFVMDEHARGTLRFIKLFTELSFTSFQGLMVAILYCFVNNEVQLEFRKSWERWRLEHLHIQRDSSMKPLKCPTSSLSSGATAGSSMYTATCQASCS
T1 sequence (P47871 26-477): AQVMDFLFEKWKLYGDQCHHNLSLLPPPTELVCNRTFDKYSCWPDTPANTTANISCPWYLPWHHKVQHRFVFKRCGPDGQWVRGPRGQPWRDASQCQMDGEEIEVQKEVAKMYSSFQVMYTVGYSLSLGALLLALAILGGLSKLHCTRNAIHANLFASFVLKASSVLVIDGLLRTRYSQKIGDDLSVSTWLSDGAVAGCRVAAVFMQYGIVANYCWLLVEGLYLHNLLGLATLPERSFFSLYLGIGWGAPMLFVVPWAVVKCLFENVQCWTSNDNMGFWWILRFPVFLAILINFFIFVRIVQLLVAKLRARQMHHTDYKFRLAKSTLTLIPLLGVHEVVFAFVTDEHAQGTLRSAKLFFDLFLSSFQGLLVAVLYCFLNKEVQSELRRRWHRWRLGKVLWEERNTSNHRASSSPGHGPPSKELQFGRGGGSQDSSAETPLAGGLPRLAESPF

Turning to `CC(C)C[C@H](NC(=O)[C@H](Cc1ccc(O)cc1)NC(=O)[C@H](CCCCN)NC(=O)[C@H](CO)NC(=O)[C@H](Cc1ccc(O)cc1)NC(=O)[C@H](CC(=O)O)NC(=O)[C@H](CO)NC(=O)[C@@H](NC(=O)[C@H](Cc1ccccc1)NC(=O)[C@@H](NC(=O)CNC(=O)[C@H](CCC(N)=O)NC(=O)C(C)(C)NC(=O)[C@@H](N)Cc1c[nH]cn1)[C@@H](C)O)[C@@H](C)O)C(=O)N[C@@H](CC(=O)O)C(=O)N[C@@H](CCC(=O)O)C(=O)N[C@@H](CCCNC(=N)N)C(=O)N[C@@H](C)C(=O)N[C@@H](C)C(=O)N[C@@H](CCCCN)C(=O)N[C@@H](CC(=O)O)C(=O)N[C@@H](Cc1ccccc1)C(=O)N[C@H](C(=O)N[C@@H](CCCCNC(=O)COCCOCCNC(=O)COCCOCCNC(=O)CC[C@H](NC(=O)CCCCCCCCCCCCCCCCC(=O)O)C(=O)O)C(=O)N[C@@H](Cc1c[nH]c2ccccc12)C(=O)N[C@@H](CC(C)C)C(=O)N[C@@H](CCS(C)(=O)=O)C(=O)N[C@@H](CC(=O)O)C(=O)N[C@H](C(N)=O)[C@@H](C)O)C(C)C` [TP701] (H-H[Aib]QGTFTSDYSKYLDERAAKDFVK([AEEA-AEEA-γGlu-C18 diacid])WL[Met(O2)]DT-NH2), the EC50 was more than 4.9 nM at human GCGR (setting [1]) and 0.18 nM on human GLP1R (setting [2]).

For the molecule `CC(C)C[C@H](NC(=O)[C@H](Cc1ccc(O)cc1)NC(=O)[C@H](CCCCN)NC(=O)[C@H](CO)NC(=O)[C@H](Cc1ccc(O)cc1)NC(=O)[C@H](CC(=O)O)NC(=O)[C@H](CO)NC(=O)[C@@H](NC(=O)[C@H](Cc1ccccc1)NC(=O)[C@@H](NC(=O)CNC(=O)[C@H](CCC(N)=O)NC(=O)[C@](C)(CO)NC(=O)[C@@H](N)Cc1c[nH]cn1)[C@@H](C)O)[C@@H](C)O)C(=O)N[C@@H](CC(=O)O)C(=O)NC(C)(C)C(=O)N[C@@H](CCCNC(=N)N)C(=O)N[C@@H](C)C(=O)N[C@@H](C)C(=O)N[C@@H](CCCCNC(=O)COCCOCCNC(=O)COCCOCCNC(=O)CC[C@H](NC(=O)CCCCCCCCCCCCCCCCC(=O)O)C(=O)O)C(=O)N[C@@H](CC(=O)O)C(=O)N[C@@H](Cc1ccccc1)C(=O)N[C@H](C(=O)N[C@@H](CCC(N)=O)C(=O)N[C@@H](Cc1c[nH]c2ccccc12)C(=O)N[C@@H](CC(C)C)C(=O)N[C@@H](CCS(C)(=O)=O)C(=O)N[C@@](C)(CC(=O)O)C(=O)N[C@H](C(N)=O)[C@@H](C)O)C(C)C` [TP620] (H-H[αMeS]QGTFTSDYSKYLD[Aib]RAAK([AEEA-AEEA-γGlu-C18 diacid])DFVQWL[Met(O2)][αMeD]T-NH2; N-terminus assumed), the “hGCGR/hGLP1R (hTone)” value on human GCGR is reported as 0.1. The EC50 on human GCGR (setting [3]) and at human GLP1R (setting [4]) was less than 5 nM each time.

With `CC(C)C[C@H](NC(=O)[C@H](Cc1ccc(O)cc1)NC(=O)[C@H](CCCCN)NC(=O)[C@H](CO)NC(=O)[C@H](Cc1ccc(O)cc1)NC(=O)[C@H](CC(=O)O)NC(=O)[C@H](CO)NC(=O)[C@@H](NC(=O)[C@H](Cc1ccccc1)NC(=O)[C@@H](NC(=O)CNC(=O)[C@H](CCC(N)=O)NC(=O)C(C)(C)NC(=O)[C@@H](N)Cc1c[nH]cn1)[C@@H](C)O)[C@@H](C)O)C(=O)N[C@@H](CC(=O)O)C(=O)N[C@@H](C)C(=O)N[C@@H](CCCNC(=N)N)C(=O)N[C@@H](C)C(=O)N[C@@H](C)C(=O)N[C@@H](CCC(N)=O)C(=O)N[C@@H](CC(=O)O)C(=O)N[C@@H](Cc1ccccc1)C(=O)N[C@H](C(=O)N[C@@H](CCCCNC(=O)COCCOCCNC(=O)CC[C@H](NC(=O)CCCCCCCCCCCCCCCCC(=O)O)C(=O)O)C(=O)N[C@@H](Cc1c[nH]c2ccccc12)C(=O)N[C@@H](CC(C)C)C(=O)N[C@@H](CCS(C)(=O)=O)C(=O)N[C@@H](CC(=O)O)C(=O)N[C@H](C(N)=O)[C@@H](C)O)C(C)C` [TP637] (H-H[Aib]QGTFTSDYSKYLDARAAQDFVK([AEEA-γGlu-C18 diacid])WL[Met(O2)]DT-NH2; N-terminus assumed), on human GCGR, the “hGCGR/hGLP1R (hTone)” value is 1.8. The EC50 at human GCGR (setting [3]) and at human GLP1R (setting [4]) was less than 5 nM throughout.

For the molecule `CC(C)C[C@H](NC(=O)[C@H](Cc1c[nH]c2ccccc12)NC(=O)[C@H](CCCCNC(=O)COCCOCCNC(=O)COCCOCCNC(=O)CC[C@H](NC(=O)CCCCCCCCCCCCCCC(=O)O)C(=O)O)NC(=O)[C@@H](NC(=O)[C@H](Cc1ccccc1)NC(=O)[C@H](CC(=O)O)NC(=O)[C@H](CCC(N)=O)NC(=O)[C@H](C)NC(=O)[C@H](C)NC(=O)[C@H](CCCNC(=N)N)NC(=O)C(C)(C)NC(=O)[C@H](CC(=O)O)NC(=O)[C@H](CC(C)C)NC(=O)[C@H](Cc1ccc(O)cc1)NC(=O)[C@H](CCCCN)NC(=O)[C@H](CO)NC(=O)[C@H](Cc1ccc(O)cc1)NC(=O)[C@H](CC(=O)O)NC(=O)[C@H](CO)NC(=O)[C@@H](NC(=O)[C@H](Cc1ccccc1)NC(=O)[C@@H](NC(=O)CNC(=O)[C@H](CCC(N)=O)NC(=O)C(C)(C)NC(=O)[C@@H](N)Cc1c[nH]cn1)[C@@H](C)O)[C@@H](C)O)C(C)C)C(=O)N[C@@H](CCS(C)(=O)=O)C(=O)N[C@@H](CC(=O)O)C(=O)N[C@H](C(N)=O)[C@@H](C)O` [TP811] (H-H[Aib]QGTFTSDYSKYLD[Aib]RAAQDFVK([AEEA-AEEA-γGlu-C16 diacid])WL[Met(O2)]DT-NH2; N-terminus assumed), the EC50 at human GCGR (setting [1]) is 0.21 nM; on human GCGR (setting [3]), less than 5 nM; on human GLP1R (setting [2]) it was 0.26 nM; on human GLP1R (setting [4]), less than 5 nM. In addition, at human GCGR, the “hGCGR/hGLP1R (hTone)” value amounted to 0.8.

Regarding `CC(C)C[C@H](NC(=O)[C@H](Cc1ccc(O)cc1)NC(=O)[C@H](CCCCN)NC(=O)[C@H](CO)NC(=O)[C@H](Cc1ccc(O)cc1)NC(=O)[C@H](CC(=O)O)NC(=O)[C@H](CO)NC(=O)[C@@H](NC(=O)[C@H](Cc1ccccc1)NC(=O)[C@@H](NC(=O)CNC(=O)[C@H](CCC(N)=O)NC(=O)C(C)(C)NC(=O)[C@@H](N)Cc1c[nH]cn1)[C@@H](C)O)[C@@H](C)O)C(=O)N[C@@H](CC(=O)O)C(=O)N[C@@H](C)C(=O)N[C@@H](CCCNC(=N)N)C(=O)N[C@@H](C)C(=O)N[C@@H](C)C(=O)N[C@@H](CCC(N)=O)C(=O)N[C@@H](Cc1ccc(CNC(=O)COCCOCCNC(=O)COCCOCCNC(=O)COCCOCCNC(=O)CC[C@H](NC(=O)CCCCCCCCCCCCCCCCC(=O)O)C(=O)O)cc1)C(=O)N[C@@H](Cc1ccccc1)C(=O)N[C@H](C(=O)N[C@@H](CCC(N)=O)C(=O)N[C@@H](Cc1c[nH]c2ccccc12)C(=O)N[C@@H](CC(C)C)C(=O)N[C@@H](CC(C)C)C(=O)N[C@@H](CC(=O)O)C(=O)N[C@H](C(N)=O)[C@@H](C)O)C(C)C` [TP679] (H-H[Aib]QGTFTSDYSKYLDARAAQ[Phe(4-CH2NH2)]([AEEA-AEEA-AEEA-γGlu-C18 diacid])FVQWLLDT-NH2; N-terminus assumed), the “hGCGR/hGLP1R (hTone)” value on human GCGR was found to be 0.7. Besides, the EC50 was less than 5 nM at human GCGR (setting [3]), 0.18 nM on human GLP1R (setting [2]) and less than 5 nM at human GLP1R (setting [4]).
